{"source": "patent US7008927B2", "about": "“Pralmorelin-containing nasal drop preparations” (Kaken Pharmaceutical Co., Ltd., priority 2000, dated 2006)", "key": {"[1]": {"experiment": "In vivo absorption after intranasal administration to rats (plasma concentration, two-antibody competition method)", "conditions": "Crj:CD (SD), rat; for Tmax: male rats; for AUC / Cmax / bioavailability: male", "method": "With an isotonic solution (in distilled water) of 5 w/v % D-mannitol or physiological saline used as a solvent, a solution of 0.1 w/v % pralmorelin dihydrochloride was prepared and administered to male rats (7-week old, Crj:CD (SD) strain, N=3) in an amount of 50 μg/kg.\nWith the rats fixed supine under an unanesthetized condition, the pralmorelin solution was administered into one nostril of each rat in an amount of 50 μg/kg with a micropipette. The rats were not anesthetized for two reasons: actual drug administration is effected without anesthesia; the effects anesthetization would have on drug absorption have not been elucidated.\nThe concentration of an unchanged substance in plasma was measured in accordance with the two-antibody competition method of Kitagawa et al. summarized below [J. Assoc. Off. Anal. Chem., Vol. 68, No. 4, pp. 661–664 (1985) and J. Immunological Methods, 72, pp. 109–118 (1984)].\nAnti-rabbit IgG goat IgG (Jackson Immuno Research) as the second antibody was adsorbed on an ELISA 96-well microplate (GREINER). Then, anti-pralmorelin dihydrochloride rabbit serum was adsorbed on the same microplate; the serum was the first antibody and had been obtained by subcutaneous injection of rabbits with an immunogen having pralmorelin dihydrochloride bound to bovine serum albumin (Sigma) by means of water-soluble carbodiimide (Nakarai Tesk).\nPralmorelin dihydrochloride contained in a sample was allowed to compete for pralmorelin labeled β-galactosidase that had been crosslinked with crosslinker N-(m-maleimidebenzoyloxy)succinimide (Nakaral Tesk); then, the β-galactosidase bound to the first antibody was reacted with 4-methylumbelliferyl-β-D-galactopyranoside; thereafter, the enzymatic activity of the β-galactosidase bound to the first antibody was measured at an excitation wavelength of 370 nm and a fluorescence wavelength of 460 nm.\nFrom the measured values for the enzymatic activity of the β-galactosidase, the maximum plasma drug concentration (Cmax) of pralmorelin dihydrochloride, the area under the plasma drug concentration vs time curve (AUC) and the bioavailability (the ratio of AUC obtained by intranasal administration to AUC obtained by intravenous administration) were obtained.\nTwo kinds of preparation for intranasal administration, one consisting of pralmorelin dihydrochloride and distilled water and the other further containing D-mannitol at varying concentrations, were evaluated for their effects on in vivo absorption of pralmorelin dihydrochloride. With four kinds of solvent, distilled water, 2.5 w/v % D-mannitol solution (osmolarity ratio, 0.5), 5 w/v % D-mannitol solution (osmolarity ratio, 1), 10 w/v % D-mannitol solution (osmolarity ratio, 2), solutions of 0.4 w/v % pralmorelin dihydrochloride were prepared and administered in an amount of 50 μg/kg to male rats as in Example 1.\nWith an aqueous solution of 0.005 w/v % benzalkonium chloride used as a base, pralmorelin preparations for intranasal administration were made at three concentrations, 0.1 w/v %, 0.3 w/v % and 1.0 w/v %, of pralmorelin dihydrochloride. Each preparation was dripped into the right nostril of 5-week old male Crj:CD (SD) rats (N=3). The dose of administration was 0.1 mg/kg, 0.3 mg/kg and 1.0 mg/kg for the respective preparations, which were all administered in a volume of 0.1 ml/kg."}, "[2]": {"experiment": "Saturated solubility in physiological saline", "assay_type": "physicochemical", "conditions": "25° C., as dihydrochloride", "method": "To be more specific, pralmorelin has low saturated solubility in physiological saline (0.15 w/v % at 25° C. when it is dihydrochloride) and at higher concentrations, pralmorelin becomes insoluble with the lapse of time and a problem occurs in terms of storage stability, thus making it difficult to formulate pralmorelin pharmaceutically using physiological saline. Even at concentrations lower than its saturated solubility, pralmorelin has low in vivo absorption and needs frequent administration."}, "[3]": {"conditions": "inhaled or intranasal, 50 ug/kg, intranasal 50 μg/kg, 0.1 w/v % solution in 5 w/v % D-mannitol"}, "[4]": {"conditions": "inhaled or intranasal, 50 ug/kg, intranasal 50 μg/kg, 0.1 w/v % solution in physiological saline"}, "[5]": {"conditions": "inhaled or intranasal, 50 ug/kg, intranasal 50 μg/kg, 0.4 w/v % solution in 2.5 w/v % D-mannitol (osmolarity ratio 0.5)"}, "[6]": {"conditions": "inhaled or intranasal, 50 ug/kg, intranasal 50 μg/kg, 0.4 w/v % solution in 5 w/v % D-mannitol (osmolarity ratio 1)"}, "[7]": {"conditions": "inhaled or intranasal, 50 ug/kg, intranasal 50 μg/kg, 0.4 w/v % solution in 10 w/v % D-mannitol (osmolarity ratio 2)"}, "[8]": {"conditions": "inhaled or intranasal, 50 ug/kg, intranasal 50 μg/kg, 0.4 w/v % solution in distilled water"}, "[9]": {"conditions": "inhaled or intranasal, 0.1 mg/kg, intranasal 0.1 mg/kg, 0.1 w/v % in aqueous 0.005 w/v % benzalkonium chloride, 0.1 ml/kg"}, "[10]": {"conditions": "inhaled or intranasal, 0.3 mg/kg, intranasal 0.3 mg/kg, 0.3 w/v % in aqueous 0.005 w/v % benzalkonium chloride, 0.1 ml/kg"}, "[11]": {"conditions": "inhaled or intranasal, 1 mg/kg, intranasal 1.0 mg/kg, 1.0 w/v % in aqueous 0.005 w/v % benzalkonium chloride, 0.1 ml/kg"}}, "note": "Where a SMILES comes first, the peptide text is derived from it. [ ]: non-standard residue; d: D form. d2Nal = N[C@H](Cc1ccc2ccccc2c1)C(=O)O", "data": [{"smiles": "C[C@H](NC(=O)[C@@H](Cc1ccc2ccccc2c1)NC(=O)[C@@H](C)N)C(=O)N[C@@H](Cc1c[nH]c2ccccc12)C(=O)N[C@H](Cc1ccccc1)C(=O)N[C@@H](CCCCN)C(N)=O.Cl.Cl", "note": "[pralmorelin dihydrochloride, D-alanyl-3-(naphthalen-2-yl)-D-alanyl-L-alanyl-L-tryptophyl-D-phenylalanyl-L-lysinamide dihydrochloride] (H-[dA][d2Nal]AW[dF]K-NH2)", "values": [{"measurement": "Tmax", "setting": "[1]; inhaled or intranasal, intranasal 0.1 mg/kg, 0.1 w/v % in aqueous 0.005 w/v % benzalkonium chloride, 0.1 ml/kg", "value": 10.2, "unit": "min"}, {"measurement": "Tmax", "setting": "[1]; inhaled or intranasal, intranasal 0.3 mg/kg, 0.3 w/v % in aqueous 0.005 w/v % benzalkonium chloride, 0.1 ml/kg", "value": 10.2, "unit": "min"}, {"measurement": "Tmax", "setting": "[1]; inhaled or intranasal, intranasal 1.0 mg/kg, 1.0 w/v % in aqueous 0.005 w/v % benzalkonium chloride, 0.1 ml/kg", "value": 10.2, "unit": "min"}, {"measurement": "AUC", "setting": "[1]; [3]", "value": 2.71, "unit": "ng·h/mL"}, {"measurement": "Cmax", "setting": "[1]; [3]", "value": 2.37, "unit": "ng/mL"}, {"measurement": "AUC", "setting": "[1]; [4]", "value": 1.98, "unit": "ng·h/mL"}, {"measurement": "Cmax", "setting": "[1]; [4]", "value": 0.7, "unit": "ng/mL"}, {"measurement": "Cmax", "setting": "[1]; [5]", "value": 55.8, "unit": "ng/mL"}, {"measurement": "bioavailability", "setting": "[1]; [5]", "value": 22.1, "unit": "%"}, {"measurement": "Cmax", "setting": "[1]; [6]", "value": 49.2, "unit": "ng/mL"}, {"measurement": "bioavailability", "setting": "[1]; [6]", "value": 19, "unit": "%"}, {"measurement": "Cmax", "setting": "[1]; [7]", "value": 21.7, "unit": "ng/mL"}, {"measurement": "bioavailability", "setting": "[1]; [7]", "value": 9, "unit": "%"}, {"measurement": "Cmax", "setting": "[1]; [8]", "value": 60.7, "unit": "ng/mL"}, {"measurement": "bioavailability", "setting": "[1]; [8]", "value": 26.2, "unit": "%"}, {"measurement": "AUC", "setting": "[1]; [9]", "value": 14.5, "unit": "ng·h/mL"}, {"measurement": "Cmax", "setting": "[1]; [9]", "value": 18, "unit": "ng/mL"}, {"measurement": "AUC", "setting": "[1]; [10]", "value": 48.1, "unit": "ng·h/mL"}, {"measurement": "Cmax", "setting": "[1]; [10]", "value": 72.8, "unit": "ng/mL"}, {"measurement": "AUC", "setting": "[1]; [11]", "value": 250, "unit": "ng·h/mL"}, {"measurement": "Cmax", "setting": "[1]; [11]", "value": 502, "unit": "ng/mL"}, {"measurement": "bioavailability", "setting": "[1]; other: intranasal, 50 ug/kg, intranasal 50 μg/kg, 0.1 w/v % solution in 5 w/v % D-mannitol, AUC intranasal / AUC intravenous", "value": 4.22, "unit": "%"}, {"measurement": "bioavailability", "setting": "[1]; other: intranasal, 50 ug/kg, intranasal 50 μg/kg, 0.1 w/v % solution in physiological saline, AUC intranasal / AUC intravenous", "value": 3.08, "unit": "%"}, {"measurement": "saturated solubility in physiological saline", "setting": "[2]", "value": 0.15, "unit": "w/v %"}]}]}
